Source: ChEMBL document CHEMBL5316353, “Antitarget, Anti-SARS-CoV-2 Leads, Drugs, and the Drug Discovery-Genetics Alliance Perspective” (J Med Chem, 2023)

How the values were obtained:
[1] = Cytotoxicity in African green monkey Vero cells by MTT assay; format: toxicity, cell-based; conditions: chlorocebus sabaeus
SARS-CoV [2] = assay: Antiviral activity against SARS-CoV-1 infected in HAE cells assessed as inhibition of viral replication; format: functional, organism-based; conditions: Severe acute respiratory syndrome-related coronavirus
[3] = Inhibition of MERS-CoV MPro; design: species or system Middle East respiratory syndrome-related coronavirus
SARS-CoV-2 [4] = format: functional, organism-based; conditions: Severe acute respiratory syndrome coronavirus 2, HPAEpiC
SARS-CoV-2 [5] = format: functional, organism-based; conditions: Severe acute respiratory syndrome coronavirus 2, Huh-7
SARS-CoV [6] = format: functional, organism-based, Vero E6; conditions: Severe acute respiratory syndrome-related coronavirus, Vero C1008
Human coronavirus 229E = assay: microbe, parasite or virus in culture; conditions: MRC5
[7] = system: Middle East respiratory syndrome-related coronavirus; format: functional, organism-based, Vero E6; conditions: Vero C1008
[8] = system: Middle East respiratory syndrome-related coronavirus; format: functional, organism-based; conditions: Calu-3
[9] = target: Transmembrane protease serine 2 (Homo sapiens) (UniProt O15393); assay: Binding affinity to TMPRSS2 (unknown origin) assessed as inhibition constant by fluorescence-based assay
Sequence of Transmembrane protease serine 2 (Homo sapiens) (O15393 1-255 limits assumed): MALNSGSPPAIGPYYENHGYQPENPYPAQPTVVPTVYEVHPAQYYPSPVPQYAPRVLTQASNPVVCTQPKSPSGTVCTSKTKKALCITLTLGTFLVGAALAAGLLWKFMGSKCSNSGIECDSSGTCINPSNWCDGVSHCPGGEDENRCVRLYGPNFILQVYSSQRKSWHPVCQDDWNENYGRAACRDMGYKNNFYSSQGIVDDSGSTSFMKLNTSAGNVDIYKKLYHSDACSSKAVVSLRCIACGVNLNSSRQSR
Sequence of Transmembrane protease serine 2 (Homo sapiens) (O15393 256-492 limits assumed): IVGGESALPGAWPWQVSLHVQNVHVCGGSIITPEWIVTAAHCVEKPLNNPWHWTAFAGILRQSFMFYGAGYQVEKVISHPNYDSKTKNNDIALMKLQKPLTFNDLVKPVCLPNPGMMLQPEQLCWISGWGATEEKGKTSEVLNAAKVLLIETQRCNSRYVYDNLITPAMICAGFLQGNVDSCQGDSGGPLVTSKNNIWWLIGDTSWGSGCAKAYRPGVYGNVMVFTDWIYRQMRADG

SARS-CoV-2 [10] = assay: microbe, parasite or virus in culture; conditions: Severe acute respiratory syndrome coronavirus 2
[11] = Binding affinity to HCoV-NL63 MPro assessed as inhibition constant; design: species or system Human coronavirus NL63
Human coronavirus OC43 = assay: Antiviral activity against HCoV-OC43 infected in human Huh-7 cells assessed as reduction of viral growth; format: functional, organism-based; conditions: Betacoronavirus 1, Huh-7
SARS-CoV-2 [12] = assay: Antiviral activity against SARS-CoV-2 Gamma assessed as reduction of viral growth; format: functional, organism-based; conditions: Severe acute respiratory syndrome coronavirus 2, Gamma
SARS-CoV-2 [13] = assay: Antiviral activity against SARS-CoV-2 Omicron assessed as reduction of viral growth; format: functional, organism-based; conditions: Severe acute respiratory syndrome coronavirus 2, Omicron
SARS-CoV-2 [14] = assay: Antiviral activity against SARS-CoV-2 Delta assessed as reduction of viral growth; format: functional, organism-based; conditions: Severe acute respiratory syndrome coronavirus 2, Delta
SARS-CoV-2 [15] = assay: Antiviral activity against SARS-CoV-2 Beta assessed as reduction of viral growth; format: functional, organism-based; conditions: Severe acute respiratory syndrome coronavirus 2, Beta

Structure (SMILES): CCC(CC)COC(=O)[C@H](C)NP(=O)(OC[C@@H]1O[C@](C#N)(c2ccc3c(N)ncnn23)[C@@H](O)[C@H]1O)Oc1ccccc1 (stereo partly drawn)
- CC50 [1]: > 100000 nM
- IC50 (SARS-CoV [2]): 69 nM

Structure (SMILES): CC(C)(C)OC(=O)Nc1cccn([C@@H](CC2CC2)C(=O)N[C@@H](C[C@@H]2CCNC2=O)C(=O)C(=O)NCc2ccccc2)c1=O
- IC50 [3]: 580 nM

Structure (SMILES): O=C[C@H](C[C@@H]1CCNC1=O)NC(=O)[C@@H]1[C@H]2CCC[C@H]2CN1C(=O)COc1ccc(Cl)cc1Cl (single isomer, unassigned)
- EC50 (SARS-CoV-2 [4]): 1.1 nM
- EC50 (SARS-CoV-2 [5]): 31 nM

Structure (SMILES): C[C@@H](OC(C)(C)C)[C@H](NC(=O)OCc1ccccc1)C(=O)N[C@@H](CC1CCCCC1)C(=O)N[C@H](C=O)C[C@@H]1CCNC1=O
- IC50 (SARS-CoV [6]): 600 nM
- IC50 (Human coronavirus 229E): 140 nM

Structure (SMILES): CC[C@H](C)[C@H](NC(=O)[C@H](Cc1ccc(O)cc1)NC(=O)[C@H](CO)NC(=O)[C@H](CCC(=O)O)NC(=O)[C@H](CCC(=O)O)NC(=O)[C@H](CC(C)C)NC(=O)[C@H](CCCCN)NC(=O)[C@H](CCCCN)NC(=O)[C@@H](NC(=O)[C@@H](NC(=O)[C@H](CCC(=O)O)NC(=O)[C@H](CCC(=O)O)NC(=O)[C@H](CC(C)C)NC(=O)[C@H](CCCCN)NC(=O)[C@H](CCCCN)NC(=O)[C@H](CCSC)NC(=O)[C@H](CCC(=O)O)NC(=O)[C@H](Cc1ccc(O)cc1)NC(=O)[C@H](CCC(=O)O)NC(=O)[C@H](CC(C)C)NC(=O)[C@H](CC(=O)O)NC(=O)[C@H](CC(C)C)NC(=O)[C@H](CC(C)C)NC(=O)[C@@H](NC(=O)[C@@H](NC(=O)[C@H](CC(N)=O)NC(=O)[C@@H](NC(=O)[C@H](CCC(N)=O)NC(=O)[C@@H](NC(=O)[C@H](CC(C)C)NC(=O)[C@@H](N)CO)[C@@H](C)O)[C@@H](C)CC)[C@@H](C)O)[C@@H](C)O)C(C)C)C(C)C)C(=O)N[C@@H](CC(=O)O)C(=O)N[C@@H](CC(C)C)C(=O)N[C@@H](CCCCN)C(=O)N[C@@H](CCC(=O)O)C(=O)N[C@@H](CC(C)C)C(=O)O
- IC50 [7]: 550 nM
- IC50 [8]: 550 nM

Structure (SMILES): N=C(N)c1cccc(C[C@H](NS(=O)(=O)c2cccc(-c3ccc(Cl)cc3Cl)c2)C(=O)N2CCC(CCN)CC2)c1
- K [9]: 0.9 nM

Structure (SMILES): CN(C)C(=O)COC(=O)Cc1ccc(OC(=O)c2ccc(NC(=N)N)cc2)cc1 [CAMOSTAT]
- EC50 (SARS-CoV-2 [10]): 700 nM

Structure (SMILES): Cc1cc(C(=O)N[C@@H](C)C(=O)N[C@H](C(=O)N[C@@H](CC(C)C)C(=O)N[C@H](/C=C/C(=O)OCc2ccccc2)C[C@@H]2CCNC2=O)C(C)C)no1
- Ki [11]: 11300 nM
- IC50 (Human coronavirus 229E): 140 nM

Structure (SMILES): COc1cccc2[nH]c(C(=O)N[C@@H](CC(C)C)C(=O)N[C@@H](C[C@@H]3CCCNC3=O)C(=O)COC(=O)c3c(C)cc(C)nc3C)cc12
- EC50 (Human coronavirus OC43): 90 nM

Structure (SMILES): COc1ccc(C(=O)Nc2cccc(C(F)(F)F)c2)cc1Nc1nc(-c2cccnc2)c2[nH]ccc2n1
- EC50 (SARS-CoV-2 [12]): < 6.9 nM
- EC50 (SARS-CoV-2 [13]): < 6.9 nM
- EC50 (SARS-CoV-2 [14]): < 6.9 nM
- EC50 (SARS-CoV-2 [15]): 12.4 nM
